Results published in patent publication US6737383B1, “Herbicidal oxadiazolidines” (priority 1999, dated 2004).

Columns and labels:
[1] = test system: rape; test: Test B pre/postemergence rape; format: in vivo, Brassica napus
In short: (§1)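 Herbicidal effect was estimated by eye on a ten-point control scale after plants spent twelve to sixteen days in a greenhouse following soil or foliar treatment. Foliar sprays targeted plants at one to four leaves; all doses were formulated in a non-phytotoxic solvent with surfactant.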

[2] = test system: purple nutsedge; test: Test B pre/postemergence purple nutsedge; format: in vivo, Cyperus rotundus
In short: as §1

[3] = test system: velvetleaf; test: Test B pre/postemergence velvetleaf; format: in vivo, Abutilon theophrasti
In short: as §1

[4] = test system: bedstraw; test: Test B pre/postemergence bedstraw; format: in vivo, Galium aparine
In short: as §1

[5] = test system: sugar beet; test: Test B pre/postemergence sugar beet; format: in vivo, Beta vulgaris
In short: as §1

[6] = test system: wheat; test: Test B pre/postemergence wheat; format: in vivo, Triticum aestivum
In short: as §1

[7] = test system: duck salad; test: Test B flood test duck salad; format: in vivo, Heteranthera limosa
In short: (§2)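 Read-out is a visual response score from 0 (no effect) to 10 (complete control), assigned by comparison with untreated controls. Treatment was applied at the 2-leaf stage, and plants stayed in the greenhouse for twelve to sixteen days before scoring.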

[8] = test system: crabgrass; test: Test B pre/postemergence crabgrass; format: in vivo, Digitaria sanguinalis
In short: as §1

[9] = test system: surinam grass; test: Test B pre/postemergence surinam grass; format: in vivo, Brachiaria decumbens
In short: as §1

[10] = test system: blackgrass; test: Test B pre/postemergence blackgrass; format: in vivo, Alopecurus myosuroides
In short: as §1

[11] = test system: pigweed; test: Test B pre/postemergence pigweed; format: in vivo, Amaranthus retroflexus
In short: as §1

[12] = test system: corn; test: Test B pre/postemergence corn; format: in vivo, Zea mays
In short: as §1

[13] = test system: soybean; test: Test B pre/postemergence soybean; format: in vivo, Glycine max
In short: as §1

[14] = test system: wild oat; test: Test B pre/postemergence wild oat; format: in vivo, Avena fatua
In short: as §1

[15] = test system: smallflower flatsedge; test: Test B flood test smallflower flatsedge; format: in vivo, Cyperus difformis
In short: as §2

[16] = test system: rice; test: Test B flood test rice; format: in vivo, Oryza sativa
In short: as §2

[17] = Preemergence, Rate 62 g/ha, scale of 0 to 10 where 0 is no effect and 10 is complete control
[18] = Preemergence, Rate 250 g/ha, scale of 0 to 10 where 0 is no effect and 10 is complete control
[19] = Preemergence, Rate 500 g/ha, scale of 0 to 10 where 0 is no effect and 10 is complete control
[20] = Rate 62 g/ha, Postemergence, scale 0 to 10, 0 no effect, 10 complete control
[21] = Rate 125 g/ha, Postemergence, scale of 0 to 10 where 0 is no effect and 10 is complete control
[22] = Rate 125 g/ha, Preemergence, scale of 0 to 10 where 0 is no effect and 10 is complete control
[23] = Rate 250 g/ha, Postemergence, scale of 0 to 10 where 0 is no effect and 10 is complete control
[24] = Rate 500 g/ha, Postemergence, scale 0 to 10, 0 no effect, 10 complete control
[25] = Rate 62 g/ha, headed Pre-emergence (flood test species), scale 0 to 10 (0 no effect, 10 complete control)
[26] = Rate 125 g/ha, Pre-emergence, flood test species, scale 0 to 10 where 0 is no effect and 10 is complete control
[27] = Rate 250 g/ha, Pre-emergence, flood-test species, scale 0 to 10, 0 is no effect, 10 is complete control
[28] = Rate 500 g/ha, Pre-emergence, flood test species, scale 0 to 10 (0 no effect, 10 complete control)

Compound: CC(C)N(C(=O)n1oc(=O)n(C2CCCC2)c1=O)c1ccc(Cl)cc1 [Compound 282]
- Rape plant response rating [1, 17]: 0
- Rape plant response rating [1, 18]: 7
- Plant response rating, Rape [1, 19]: 2
- Rape plant response rating [1, 20]: 2
- Rape plant response rating [1, 21]: 3
- Rape plant response rating [1, 22]: 0
- Plant response rating, Rape [1, 23]: 6
- Rape plant response rating [1, 24]: 8
- Nutsedge plant response rating [2, 17]: 0
- Nutsedge plant response rating [2, 18]: 0
- Nutsedge plant response rating [2, 20]: 0
- Nutsedge plant response rating [2, 21]: 0
- Nutsedge plant response rating [2, 22]: 0
- Plant response rating, Nutsedge [2, 23]: 0
- Nutsedge plant response rating [2, 24]: 0
- Velvetleaf plant response rating [3, 17]: 0
- Velvetleaf plant response rating [3, 18]: 0
- Plant response rating, Velvetleaf [3, 19]: 0
- Velvetleaf plant response rating [3, 20]: 0
- Velvetleaf plant response rating [3, 21]: 0
- Velvetleaf plant response rating [3, 22]: 0
- Plant response rating, Velvetleaf [3, 23]: 3
- Velvetleaf plant response rating [3, 24]: 3
- Bedstraw plant response rating [4, 17]: 0
- Bedstraw plant response rating [4, 18]: 2
- Plant response rating, Bedstraw [4, 19]: 2
- Bedstraw plant response rating [4, 20]: 5
- Bedstraw plant response rating [4, 21]: 5
- Plant response rating, Bedstraw [4, 23]: 7
- Bedstraw plant response rating [4, 24]: 8
- Sugarbeets plant response rating [5, 17]: 0
- Sugarbeets plant response rating [5, 18]: 0
- Plant response rating, Sugarbeets [5, 19]: 3
- Sugarbeets plant response rating [5, 20]: 2
- Sugarbeets plant response rating [5, 21]: 6
- Sugarbeets plant response rating [5, 22]: 0
- Plant response rating, Sugarbeets [5, 23]: 7
- Sugarbeets plant response rating [5, 24]: 7
- Wheat plant response rating [6, 17]: 0
- Wheat plant response rating [6, 18]: 0
- Plant response rating, Wheat [6, 19]: 0
- Wheat plant response rating [6, 20]: 0
- Wheat plant response rating [6, 21]: 0
- Wheat plant response rating [6, 22]: 0
- Plant response rating, Wheat [6, 23]: 0
- Wheat plant response rating [6, 24]: 0
- Ducksalad plant response rating [7, 25]: 0
- Ducksalad plant response rating [7, 26]: 0
- Ducksalad plant response rating [7, 27]: 0
- Ducksalad plant response rating [7, 28]: 0
- Crabgrass plant response rating [8, 17]: 1
- Crabgrass plant response rating [8, 18]: 6
- Plant response rating, Crabgrass [8, 19]: 8
- Crabgrass plant response rating [8, 20]: 0
- Crabgrass plant response rating [8, 21]: 0
- Crabgrass plant response rating [8, 22]: 1
- Plant response rating, Crabgrass [8, 23]: 0
- Crabgrass plant response rating [8, 24]: 0
- B. signalgrass plant response rating [9, 17]: 0
- B. signalgrass plant response rating [9, 18]: 2
- Plant response rating, B. signalgrass [9, 19]: 7
- B. signalgrass plant response rating [9, 20]: 0
- B. signalgrass plant response rating [9, 21]: 0
- B. signalgrass plant response rating [9, 22]: 1
- Plant response rating, B. signalgrass [9, 23]: 0
- B. signalgrass plant response rating [9, 24]: 2
- Blackgrass plant response rating [10, 17]: 0
- Blackgrass plant response rating [10, 18]: 4
- Plant response rating, Blackgrass [10, 19]: 8
- Blackgrass plant response rating [10, 20]: 0
- Blackgrass plant response rating [10, 21]: 2
- Blackgrass plant response rating [10, 22]: 1
- Plant response rating, Blackgrass [10, 23]: 5
- Blackgrass plant response rating [10, 24]: 8
- Redroot pigweed plant response rating [11, 17]: 1
- Redroot pigweed plant response rating [11, 18]: 7
- Plant response rating, Redroot pigweed [11, 19]: 9
- Redroot pigweed plant response rating [11, 20]: 4
- Redroot pigweed plant response rating [11, 21]: 6
- Redroot pigweed plant response rating [11, 22]: 6
- Plant response rating, Redroot pigweed [11, 23]: 7
- Redroot pigweed plant response rating [11, 24]: 8
- Corn plant response rating [12, 17]: 0
- Corn plant response rating [12, 18]: 0
- Plant response rating, Corn [12, 19]: 0
- Corn plant response rating [12, 20]: 0
- Corn plant response rating [12, 21]: 0
- Corn plant response rating [12, 22]: 0
- Plant response rating, Corn [12, 23]: 0
- Corn plant response rating [12, 24]: 0
- Soybean plant response rating [13, 17]: 0
- Soybean plant response rating [13, 18]: 0
- Plant response rating, Soybean [13, 19]: 0
- Soybean plant response rating [13, 20]: 3
- Soybean plant response rating [13, 21]: 3
- Soybean plant response rating [13, 22]: 0
- Plant response rating, Soybean [13, 23]: 4
- Soybean plant response rating [13, 24]: 4
- Wild oats plant response rating [14, 17]: 0
- Wild oats plant response rating [14, 18]: 5
- Plant response rating, Wild oats [14, 19]: 7
- Wild oats plant response rating [14, 20]: 0
- Wild oats plant response rating [14, 21]: 0
- Plant response rating, Wild oats [14, 23]: 0
- Wild oats plant response rating [14, 24]: 0
- S. Flatsedge plant response rating [15, 25]: 0
- S. Flatsedge plant response rating [15, 26]: 0
- S. Flatsedge plant response rating [15, 27]: 2
- S. Flatsedge plant response rating [15, 28]: 4
- Rice plant response rating [16, 25]: 0
- Rice plant response rating [16, 26]: 0
- Rice plant response rating [16, 27]: 0
- Rice plant response rating [16, 28]: 0
